{"source": "ChEMBL document CHEMBL1138675", "about": "(J Med Chem, 2004)", "key": {"[1]": {"molecular_target": "T1, Melatonin receptor type 1B (Homo sapiens, UniProt P49286)", "T1 sequence (P49286 whole entry)": "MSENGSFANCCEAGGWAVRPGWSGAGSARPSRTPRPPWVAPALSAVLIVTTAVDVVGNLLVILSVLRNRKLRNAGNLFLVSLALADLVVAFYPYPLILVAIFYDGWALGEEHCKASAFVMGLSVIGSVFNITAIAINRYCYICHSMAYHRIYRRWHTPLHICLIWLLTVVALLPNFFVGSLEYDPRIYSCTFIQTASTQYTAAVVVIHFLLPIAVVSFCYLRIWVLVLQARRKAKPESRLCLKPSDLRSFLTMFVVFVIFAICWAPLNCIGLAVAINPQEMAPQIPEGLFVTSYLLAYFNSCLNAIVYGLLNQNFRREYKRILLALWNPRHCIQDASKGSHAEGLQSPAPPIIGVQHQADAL", "assay": "Binding affinity for human recombinant Melatonin receptor type 2 expressed in NIH3T3 cells", "type": "cell-based"}, "[2]": {"molecular_target": "T2, Melatonin receptor type 1A (Homo sapiens, UniProt P48039)", "T2 sequence (P48039 whole entry)": "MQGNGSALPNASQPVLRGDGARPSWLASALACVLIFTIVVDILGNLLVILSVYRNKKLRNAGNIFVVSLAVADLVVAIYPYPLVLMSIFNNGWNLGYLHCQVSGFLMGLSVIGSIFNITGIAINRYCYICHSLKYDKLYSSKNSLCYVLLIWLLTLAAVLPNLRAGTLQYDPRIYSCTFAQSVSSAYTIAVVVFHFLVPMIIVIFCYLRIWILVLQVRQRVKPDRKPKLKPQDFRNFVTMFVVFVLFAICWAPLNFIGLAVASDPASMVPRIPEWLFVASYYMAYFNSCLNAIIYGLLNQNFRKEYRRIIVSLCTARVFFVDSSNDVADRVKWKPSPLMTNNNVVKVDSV", "assay": "Binding affinity for human recombinant Melatonin receptor type 1 expressed in NIH3T3 cells", "type": "cell-based"}, "[3]": {"molecular_target": "T2, Melatonin receptor type 1A"}, "[4]": {"molecular_target": "T3, Melatonin receptor type 1B (Homo sapiens) (UniProt P49286)", "T3 sequence (whole entry)": "T1 sequence (P49286 whole entry)"}}, "data": [{"smiles": "COc1ccc2c(c1)C(CNC(C)=O)Cc1ccccc1C2=O", "note": "(configuration not stated)", "values": [{"measurement": "Ki", "setting": "[1]", "result": 0.891, "unit": "nM"}, {"measurement": "Ki", "setting": "[2]", "result": 3.02, "unit": "nM"}, {"measurement": "IAr", "setting": "[3]", "result": -0.14}, {"measurement": "IAr", "setting": "[4]", "result": -0.08}]}, {"smiles": "CC(=O)NCCC1Cc2ccccc2Cc2ccccc21", "note": "(configuration not stated)", "values": [{"measurement": "Ki", "setting": "[1]", "result": 89.1, "unit": "nM"}, {"measurement": "Ki", "setting": "[2]", "result": 389, "unit": "nM"}, {"measurement": "IAr", "setting": "[3]", "result": 0.21}, {"measurement": "IAr", "setting": "[4]", "result": 0.69}]}, {"smiles": "COc1ccc2[nH]cc(CCNC(C)=O)c2c1", "values": [{"measurement": "IAr", "setting": "[3]", "result": 1}]}, {"smiles": "CCC(=O)NCCN1c2ccccc2C=Cc2ccc(OC)cc21", "values": [{"measurement": "Ki", "setting": "[1]", "result": 38, "unit": "nM"}, {"measurement": "Ki", "setting": "[2]", "result": 57.5, "unit": "nM"}, {"measurement": "IAr", "setting": "[3]", "result": -0.04}, {"measurement": "IAr", "setting": "[4]", "result": -0.1}]}, {"smiles": "CC(=O)NCCN1c2ccccc2C=Cc2ccccc21", "values": [{"measurement": "Ki", "setting": "[1]", "result": 126, "unit": "nM"}, {"measurement": "Ki", "setting": "[2]", "result": 112, "unit": "nM"}, {"measurement": "IAr", "setting": "[3]", "result": 0.01}, {"measurement": "IAr", "setting": "[4]", "result": -0.03}]}, {"smiles": "CCCC(=O)NCC1Cc2ccccc2Cc2ccc(OC)cc21", "note": "(configuration not stated)", "values": [{"measurement": "Ki", "setting": "[1]", "result": 0.245, "unit": "nM"}, {"measurement": "Ki", "setting": "[2]", "result": 1.29, "unit": "nM"}, {"measurement": "IAr", "setting": "[3]", "result": -0.09}, {"measurement": "IAr", "setting": "[4]", "result": -0.17}]}, {"smiles": "CC(=O)NCC1Cc2ccccc2Cc2ccccc21", "note": "(configuration not stated)", "values": [{"measurement": "Ki", "setting": "[1]", "result": 30.2, "unit": "nM"}, {"measurement": "Ki", "setting": "[2]", "result": 240, "unit": "nM"}, {"measurement": "IAr", "setting": "[3]", "result": 0.03}, {"measurement": "IAr", "setting": "[4]", "result": -0.32}]}, {"smiles": "CCC(=O)NCCN1c2ccccc2CCc2ccccc21", "values": [{"measurement": "Ki", "setting": "[1]", "result": 200, "unit": "nM"}, {"measurement": "Ki", "setting": "[2]", "result": 550, "unit": "nM"}, {"measurement": "IAr", "setting": "[3]", "result": 0.03}, {"measurement": "IAr", "setting": "[4]", "result": 0.13}]}, {"smiles": "COc1ccc2c(c1)C(CCNC(C)=O)Cc1ccccc1C2", "note": "(configuration not stated)", "values": [{"measurement": "Ki", "setting": "[1]", "result": 39.8, "unit": "nM"}, {"measurement": "Ki", "setting": "[2]", "result": 162, "unit": "nM"}, {"measurement": "IAr", "setting": "[3]", "result": -0.07}, {"measurement": "IAr", "setting": "[4]", "result": 0.01}]}, {"smiles": "CC(=O)NCC(=O)N1c2ccccc2C=Cc2ccccc21", "values": [{"measurement": "Ki", "setting": "[1]", "result": 11000, "unit": "nM"}, {"measurement": "Ki", "setting": "[2]", "result": 20400, "unit": "nM"}]}, {"smiles": "COc1ccc2c(c1)C(CNC(C)=O)Cc1ccccc1C2", "note": "(configuration not stated)", "values": [{"measurement": "Ki", "setting": "[1]", "result": 0.661, "unit": "nM"}, {"measurement": "Ki", "setting": "[2]", "result": 6.17, "unit": "nM"}, {"measurement": "IAr", "setting": "[3]", "result": -0.18}, {"measurement": "IAr", "setting": "[4]", "result": -0.55}]}, {"smiles": "CCC(=O)NCC1Cc2ccccc2Cc2ccc(OC)cc21", "note": "(configuration not stated)", "values": [{"measurement": "Ki", "setting": "[1]", "result": 0.162, "unit": "nM"}, {"measurement": "Ki", "setting": "[2]", "result": 1.35, "unit": "nM"}, {"measurement": "IAr", "setting": "[3]", "result": -0.1}, {"measurement": "IAr", "setting": "[4]", "result": -0.15}]}, {"smiles": "CC(=O)NCC1=Cc2ccccc2Cc2ccccc21", "values": [{"measurement": "Ki", "setting": "[1]", "result": 85.1, "unit": "nM"}, {"measurement": "Ki", "setting": "[2]", "result": 550, "unit": "nM"}, {"measurement": "IAr", "setting": "[3]", "result": 0.02}, {"measurement": "IAr", "setting": "[4]", "result": -0.09}]}]}
